Usually IC50 stands for the concentration that gives 50% inhibition.

Consider ten molecules from patent publication US8039514B2, “Sulfonamide compounds and use thereof” (Asahi Kasei Pharma Corporation, priority 2008, dated 2011).

The target of data set [1] is T1, human calcium-sensing receptor (CaSR) (Homo sapiens, UniProt P41180).
T1 construct: expressed in transfected cells
T1 sequence (P41180 20-1078): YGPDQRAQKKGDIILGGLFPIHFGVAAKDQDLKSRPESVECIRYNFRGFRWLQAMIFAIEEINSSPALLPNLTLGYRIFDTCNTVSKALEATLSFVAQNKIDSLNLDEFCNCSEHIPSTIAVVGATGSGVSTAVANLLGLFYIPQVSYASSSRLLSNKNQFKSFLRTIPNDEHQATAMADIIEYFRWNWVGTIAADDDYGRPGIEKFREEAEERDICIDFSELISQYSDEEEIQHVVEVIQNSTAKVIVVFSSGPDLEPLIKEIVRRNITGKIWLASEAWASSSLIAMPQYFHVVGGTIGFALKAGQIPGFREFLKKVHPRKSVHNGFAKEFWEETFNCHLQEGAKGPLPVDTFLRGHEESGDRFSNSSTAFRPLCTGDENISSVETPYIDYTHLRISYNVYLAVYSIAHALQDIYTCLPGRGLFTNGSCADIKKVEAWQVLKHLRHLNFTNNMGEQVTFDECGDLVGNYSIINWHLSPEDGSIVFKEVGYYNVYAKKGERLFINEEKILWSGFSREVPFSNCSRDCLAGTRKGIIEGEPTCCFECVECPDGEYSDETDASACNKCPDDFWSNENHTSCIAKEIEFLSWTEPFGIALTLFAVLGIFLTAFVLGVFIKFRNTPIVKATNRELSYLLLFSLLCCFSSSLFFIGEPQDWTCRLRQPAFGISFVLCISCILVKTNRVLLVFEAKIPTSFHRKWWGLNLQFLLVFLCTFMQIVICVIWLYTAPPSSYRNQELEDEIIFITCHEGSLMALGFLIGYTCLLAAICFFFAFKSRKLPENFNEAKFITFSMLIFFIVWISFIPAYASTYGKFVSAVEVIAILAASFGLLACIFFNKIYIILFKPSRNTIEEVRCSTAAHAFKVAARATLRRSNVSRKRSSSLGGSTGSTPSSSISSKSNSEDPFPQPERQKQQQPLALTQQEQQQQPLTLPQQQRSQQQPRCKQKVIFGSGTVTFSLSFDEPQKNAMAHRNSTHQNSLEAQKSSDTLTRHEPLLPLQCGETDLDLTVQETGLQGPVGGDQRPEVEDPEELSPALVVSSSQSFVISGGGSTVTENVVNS
The data set is described as follows: intracellular Ca assay, CaSR antagonist activity in HEK293/hCaSR cells. It counts as cell-based. The settings on record: Fura2-AM, inhibition of response to calcium chloride ligand solution, read-out: IC50 values according to the intracellular Ca assay (CaSR antagonist activity). Summed up:
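HEK293/hCaSR cells were loaded with Fura2-AM and pre-incubated with compound for 160 s at 37° C in HEPES buffer (pH 7.4, 0.8 mM CaCl2), then challenged with calcium ligand solution. Read-out was the peak 340/380 nm fluorescence ratio; inhibition is relative to no-compound (0%) and no-calcium-ligand (100%) controls.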

Data set [2] has as its system PTH concentration in blood. It counts as in vivo. The settings on record: for death or abnormality of the rat administered with the compounds: 0.1-100 mg/kg intravenous or oral; for PTH concentration in blood after 30 minutes / dose dependence of PTH concentration increase / PTH concentration in blood 5 minutes after the intravenous administration: rat, 0.1-100 mg/kg; for PTH concentration in blood 5 minutes after the intravenous administration: Rat Intact PTH ELISA, versus normal value. On the procedure: Compounds of Exp. 3-49, Exp. 3-57, Exp. 3-93, Exp. 3-95, Exp. 3-102, Exp. 3-106, Exp. 8-5, Exp. 10-1 and Exp. 10-25 were chosen as a test compound. Each of them was either dissolved or suspended in physiological saline or distilled water containing 1-20% DMSO, 5% CremophorEL, 10-40% PEG300, etc. and administered intravenously (tail vein or femoral vein) or orally administered to a 7 week to 10 week old male SD-IGS rat (Nippon Charles-River) with dosage of 0.1-100 mg/kg. After that, blood sample was taken from subclavian vein over the time and serum was separated. Concentration of PTH in blood was measured using Rat Intact PTH ELISA Kit (manufactured by Immutopics) to evaluate an activity of increasing PTH concentration in blood. […] Therefore, the safety of these compounds was confirmed again.
(In general: An ELISA detects its analyte on a solid surface through an enzyme-linked reagent.)

The conditions of data set [3]: oral everyday for eight weeks, rat with removed ovary; cited from earlier work.
For data set [4], the system named is PTH concentration in blood. The settings on record: single oral administration, rat; cited from earlier work.
For data set [5] the following is noted: PTH 20 μg subcutaneous everyday; ALN 10 mg oral everyday; cited from earlier work.
The conditions of data set [6]: 20 μg subcutaneously everyday for 19 months in average; cited from earlier work.

On to `CN(C[C@H](O)CNC(C)(C)CCCc1ccccc1)S(=O)(=O)c1cc(CCC(=O)O)cc(C(F)(F)F)c1` [Exp. 8-5, (R)-3-(3-(N-(2-hydroxy-3-(2-methyl-5-phenylpentan-2-ylamino)propyl)-N-methylsulfamoyl)-5-(trifluoromethyl)phenyl)propionic acid], for which, in data set [1], the half-maximal inhibitory concentration (IC50) was no more than 300 nM. Also, in data set [2], the “death or abnormality of the rat administered with the compounds” value (from here on “death or abnormality”) is recorded as “no death or abnormality was found”, the “PTH concentration in blood after 30 minutes” value is listed as “returned to a normal value”, the “dose dependence of PTH concentration increase” value is “dependent on the administration amount of the compound” and the “PTH concentration in blood 5 minutes after the intravenous administration” value (shortened to “PTH concentration in blood 5 minutes”) is “increased at least twice the normal value”.

As to `CN(C[C@H](O)CNC(C)(C)CC1Cc2ccccc2C1)S(=O)(=O)c1cc(CCC(=O)O)cc(C(F)(F)F)c1` [Exp. 10-1, (R)-3-(3-(N-(3-(1-(2,3-dihydro-1H-inden-2-yl)-2-methylpropan-2-ylamino)-2-hydroxypropyl)-N-methylsulfamoyl)-5-(trifluoromethyl)phenyl)propionic acid], in data set [2], the “death or abnormality” value is “no death or abnormality was found”, the “PTH concentration in blood after 30 minutes” value was “returned to a normal value”, the “dose dependence of PTH concentration increase” value is “dependent on the administration amount of the compound” and the “PTH concentration in blood 5 minutes” value is listed as “increased at least twice the normal value”.

For the molecule `CN(C[C@H](O)CNC(C)(C)CC1Cc2ccccc2C1)S(=O)(=O)c1cccc(-c2cccc(C(=O)O)c2)c1` [Exp. 3-49, (R)-3′-(N-(3-(1-(2,3-dihydro-1H-inden-2-yl)-2-methylpropan-2-ylamino)-2-hydroxypropyl)-N-methylsulfamoyl)biphenyl-3-carboxylic acid], in data set [1], the IC50 was no more than 300 nM. Further, in data set [2], the “death or abnormality” value is “no death or abnormality was found”, the “PTH concentration in blood after 30 minutes” value was “returned to a normal value”, the “dose dependence of PTH concentration increase” value is reported as “dependent on the administration amount of the compound” and the “PTH concentration in blood 5 minutes” value is on record as “increased at least twice the normal value”.

In the case of `CN(C[C@H](O)CNC(C)(C)CC1Cc2ccccc2C1)S(=O)(=O)c1cc(CCCC(=O)O)cc(C(F)(F)F)c1` [Exp. 10-25, (R)-4-(3-(N-(3-(1-(2,3-dihydro-1H-inden-2-yl)-2-methylpropan-2-ylamino)-2-hydroxypropyl)-N-methylsulfamoyl)-5-(trifluoromethyl)phenyl)butanoic acid], in data set [2], the “death or abnormality” value was “no death or abnormality was found”, the “PTH concentration in blood after 30 minutes” value is reported as “returned to a normal value”, the “dose dependence of PTH concentration increase” value is reported as “dependent on the administration amount of the compound” and the “PTH concentration in blood 5 minutes” value is “increased at least twice the normal value”.

On to `CC(C)(Cc1ccc2ccccc2c1)NC[C@@H](O)COc1cccc(Cl)c1C#N` [NPS2143], for which, in data set [3], the “bone formation evaluated by bone morphometry” value was “increased” and the bone mineral density result is listed as “remained almost the same”. Moreover, the “PTH concentration in blood” value in data set [4] is given as “continuously increased”.

With `CN(C[C@H](O)CNC(C)(C)CC1Cc2ccccc2C1)S(=O)(=O)c1ccc(-c2ccc(CCC(=O)O)cc2)c(Cl)c1` [Exp. 3-106, (R)-3-(2′-chloro-4′-(N-(3-(1-(2,3-dihydro-1H-inden-2-yl)-2-methylpropan-2-ylamino)-2-hydroxypropyl)-N-methylsulfamoyl)biphenyl-4-yl)propionic acid], in data set [1], the IC50 was no more than 300 nM. Moreover, in data set [2], the “death or abnormality” value is listed as “no death or abnormality was found”, the “PTH concentration in blood after 30 minutes” value is “returned to a normal value”, the “dose dependence of PTH concentration increase” value is reported as “dependent on the administration amount of the compound” and the “PTH concentration in blood 5 minutes” value is “increased at least twice the normal value”.

As to `CN(C[C@H](O)CNC(C)(C)CC1Cc2ccccc2C1)S(=O)(=O)c1cccc(-c2ccc(CCC(=O)O)cc2)c1` [Exp. 3-57, (R)-3-(3′ (N-(3-(1-(2,3-dihydro-1H-inden-2-yl)-2-methylpropan-2-ylamino)-2-hydroxypropyl)-N-methylsulfamoyl)biphenyl-4-yl)propionic acid], in data set [1], the IC50 was in the range of 300 to 1000 nM. In addition, in data set [2], the “death or abnormality” value was “no death or abnormality was found”, the “PTH concentration in blood after 30 minutes” value is “returned to a normal value”, the “dose dependence of PTH concentration increase” value was “dependent on the administration amount of the compound” and the “PTH concentration in blood 5 minutes” value is given as “increased at least twice the normal value”.

As for `CN(C[C@H](O)CNC(C)(C)Cc1ccc(Cl)c(F)c1)S(=O)(=O)c1cc(-c2ccc(CCC(=O)O)cc2)cc(C(F)(F)F)c1` [Exp. 3-95, (R)-3-(3′-(N-(3-(1-(4-chloro-3-fluorophenyl)-2-methylpropan-2-ylamino)-2-hydroxypropyl)-N-methylsulfamoyl)-5′-(trifluoromethyl)biphenyl-4-yl)propionic acid], in data set [2], the “death or abnormality” value is listed as “no death or abnormality was found”, the “PTH concentration in blood after 30 minutes” value is “returned to a normal value”, the “dose dependence of PTH concentration increase” value is recorded as “dependent on the administration amount of the compound” and the “PTH concentration in blood 5 minutes” value is “increased at least twice the normal value”.

Regarding `CN(C[C@H](O)CNC(C)(C)CC1Cc2ccccc2C1)S(=O)(=O)c1cc(-c2ccc(CCC(=O)O)cc2)cc(C(F)(F)F)c1` [Exp. 3-93, (R)-3-(3′-(N-(3-(1-(2,3-dihydro-1H-inden-2-yl)-2-methylpropan-2-ylamino)-2-hydroxypropyl)-N-methylsulfamoyl)-5′-(trifluoromethyl)biphenyl-4-yl)propionic acid], the IC50 in data set [1] is no more than 300 nM. In data set [2], the “death or abnormality” value is listed as “no death or abnormality was found”, the “PTH concentration in blood after 30 minutes” value is reported as “returned to a normal value”, the “dose dependence of PTH concentration increase” value is recorded as “dependent on the administration amount of the compound” and the “PTH concentration in blood 5 minutes” value is recorded as “increased at least twice the normal value”.

B1: PTH: parathyroid hormone (PTH) preparation, a peptide preparation injected subcutaneously (peptide, UniProt P01270 32-115, looked up)
Parathyroid hormone: SVSEIQLMHNLGKHLNSMERVEWLRKKLQDVHNFVALGAPLAPRDAGSQRPRKKEDNVLVESHEKSLGEADKADVNVLTKAKSQ
modifications: Parathyroid hormone
notes: parathyroid hormone (PTH) preparation, a peptide preparation injected subcutaneously
On to B1, for which the “increase of bone mineral density of lumbar spine 18 months after the administration” value in data set [5] is given as 10.3%. Moreover, in data set [6], the “bone mineral density increase in lumbar spine” value is reported as 9.7%, the “bone mineral density increase in neck of femur” value was 2.8%, the “inhibition of frequency of occurrence of new vertebral body fracture” value is recorded as 65% and the “inhibition of frequency of occurrence of non-vertebral body fracture” value is recorded as 53%.
